{
  "source": "patent US20230265336A1",
  "about": "“COMPOSITION WITH FOAMING PROPERTIES” (priority 2020, published 2023)",
  "key": {"[1]": {"settings": "based on the safety data sheet (SDS); cited from earlier work"}},
  "data": [
    {"smiles": "[O]=[Mg]", "note": "[MgO]", "values": [
      {"measurement": "Solubility in brine (in words)", "result": "insoluble"}
    ]},
    {"smiles": "[Cl-].[Cl-].[Mg+2]", "note": "[magnesium chloride]", "values": [
      {"measurement": "Biodegradability (in words)", "setting": "[1]", "result": "good biodegradability"},
      {"measurement": "Toxicity as an individual substance (in words)", "setting": "[1]", "result": "non-toxic"}
    ]}
  ]
}
